# Experimental data taken from patent US5089506A, “Ethanobicyclic amine derivatives for CNS disorders” (G. D. Searle & Co., priority 1990, dated 1992).
# Read-outs that look alike come from different tables or passages of the source.
# Key:
# sigma receptor = target: T1, sigma receptor (Rattus norvegicus, UniProt Q9R0C9); assay: Radioreceptor assay: sigma receptor binding (displacement of [3H]-3-(+)-PPP) in crude rat brain membranes; set-up: species or system male Sprague-Dawley rats
# T1 construct: crude membrane preparations were prepared as follows; Brains from male Sprague-Dawley rats; from tissue; host or cells: whole brain of male Sprague-Dawley rats, crude membranes
# T1 sequence (Q9R0C9 whole entry): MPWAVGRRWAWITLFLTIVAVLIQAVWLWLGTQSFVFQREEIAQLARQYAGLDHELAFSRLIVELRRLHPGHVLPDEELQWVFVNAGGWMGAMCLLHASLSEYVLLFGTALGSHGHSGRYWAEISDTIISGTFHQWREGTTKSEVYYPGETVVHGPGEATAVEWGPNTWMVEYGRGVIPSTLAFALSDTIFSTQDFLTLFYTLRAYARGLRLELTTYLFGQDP
# Procedure: To determine the effects of the compounds in a sigma receptor assay, crude membrane preparations were prepared as follows. Brains from male Sprague-Dawley rats were homogenized in 10 volumes (wt/vol) of 0.32M sucrose, using a Polytron grinder. The homogenate was centrifuged at 900×g for 10 minutes at 4° C. The supernatant was collected and centrifuged at 22,000×X g for 20 minutes at 4° C. The pellet was resuspended in 10 volumes of 50 mM Tris/HCl buffer (pH 7.4) and centrifuged at 22,000×g for 20 minutes at 4° C. The pellet was resuspended in 5 mM Tris/HCl buffer (pH 7.4) to give a final concentration of 250 mg/ml of the crude material. Incubation tubes were prepared in triplicate and contained 0.1 ml of tissue suspension, 2 nM of [^3 H]-(+)-1-propyl-3-(3-hydroxyphenyl)piperidine [^3 H]-3-(+)-PPP, and varying concentrations of the displacing ligand (0.1-1000 nM) in a final volume of 0.5 ml. After a 1 hr incubation at room temperature, the contents of the test tubes were filtered through GS filter paper which had been presoaked for at least 2 hours in 0.05% polyethyleneimine. The test tubes were rinsed three times with Tris/HCl buffer. Radioactivity on the filters was determined using liquid scintillation spectrometry and inhibition curves were calculated according to the method of Cheng and Prusoff [Biochem. Pharmacol., 22, 3099-3108 (1973)].
# [1] = test system: N-allylnormetazocine-induced stereotyped behavior; assay: Blockade of agonist (N-allylnormetazocine)-induced stereotyped behavior and ataxia; format: in vivo; conditions: ip, N-allylnormetazocine 15 mg/kg i.p.
# Procedure: Compounds of the invention were evaluated for their ability to block the effects of N-allylnormetazocine on the induction of stereotyped behavior and ataxia. To test for antagonism, drugs are administered at varying times before i.p. administration of 15 mg/kg of N-allylnormetazocine. Behavioral and ataxia ratings are taken at 2.5 minutes, 5 minutes, and every 5 minutes thereafter until the animal returns to control behavior. […] The lowest dose of the test compound which is capable of blocking the stereotyped behavior and ataxia induced by N-allylnormetazocine was determined.
# NMDA receptor = conditions: C. Carter et al, J. Pharm Exp. Ther., 247(3), 1222-1232 (1988); cited from earlier work
# [2] = [3H]-3-(+)-PPP 2 nM, rat brain crude membranes, 1 hr, room temperature, ± SEM, Table II, read-out: Ki apparent (units ± SEM)
# [3] = test compound i.p. (route given for the 1 mg/kg dose), read-out: dose which fully blocked N-allylnormetazocine-induced stereotyped behavior (lowest dose capable of blocking)
Compound,Ki (sigma receptor) [nM],Ki (sigma receptor; [2]) [nM],"minimal effective dose [1, 3] [mg/kg]",further results
"c1ccc2c(c1)C1CC2C(N2CCCCC2)C1 (centres unmarked) [Compound No. 6, 1-(2-Benzobicyclo[2.2.1]heptenyl)piperidine]",0.075 ± 0.06,,,minimal effective dose ([1]; read-out: dose which blocked these same responses (N-allylnormetazocine-induced stereotyped behavior; not stated as fully)): 10 mg/kg
"c1ccc2c(c1)C1CCC2C(CN2CCCCC2)C1 (centres unmarked) [Compound No. 2, 1-(2-Benzobicyclo[2.2.2]octenyl)methylpiperidine]",,11 ± 6,3,
"CN1CCN(C2CC3CC2c2ccccc23)CC1 (centres unmarked) [Compound No. 8, 1-(2-Benzobicyclo[2.2.1]heptenyl)-4-methylpiperazine]",943 ± 3,,,
CC(C(O)c1ccc(O)cc1)N1CCC(Cc2ccccc2)CC1 (centres unmarked) [ifenprodil],,,,found to be non-competitive NMDA receptor antagonists (NMDA receptor): non-competitive NMDA receptor antagonists
1-(4-chlorophenyl)-2-[1-(4-fluorophenyl)piperidinyl]ethanol,,,,found to be non-competitive NMDA receptor antagonists (NMDA receptor): non-competitive NMDA receptor antagonists
"c1ccc2c(c1)C1CCC2C(N2CCCCC2)C1 (centres unmarked) [Compound No. 1, 1-(2-Benzobicyclo[2.2.2]octenyl)piperidine]",,137 ± 9,,
"c1ccc2c(c1)C1CC(CN3CCCCC3)C2C1 (centres unmarked) [Compound No. 5, 1-(2-Benzobicyclo[2.2.1]heptenyl)methylpiperidine]",9 ± 4,,1,
"CN1CCN(CC2CC3CCC2c2ccccc23)CC1 (centres unmarked) [Compound No. 3, 1-(2-Benzobicyclo[2.2.2]octenyl)methyl-4-methylpiperazine]",,4 ± 2,1,
"CN1CCN(CC2CC3CC2c2ccccc23)CC1 (centres unmarked) [Compound No. 7, 1-(2-benzobicyclo[2.2.1]-heptenyl)methyl-4-methylpiperazine]",22000 ± 2000,,,
"CN1CCN(C2CC3CCC2c2ccccc23)CC1 (centres unmarked) [Compound No. 4, 1-(2-benzobicyclo[2.2.2]octenyl)-4-methylpiperazine]",,170 ± 40,,
